System: Phospho-Rb (Ser807/811) in SW1573-CDK6 KO cells
Assay: Phospho-Rb expression inhibition in SW1573-CDK6 KO cells quantified by in cell Western
Type: cell-based
Conditions: Homo sapiens, 24 hours, read-out: SW1573 CDK6 KO pRb IC50
Procedure: Parental SW1573 cells were obtained from the American Type Culture Collection (ATCC). CDK4 or CDK6 gene in […] cells was knocked out using the CRISPR-Cas9 technology. First, gRNA complex of CDK4 or CDK6 was prepared with Alt-R CRISPR-Cas9 tracrRNA and crRNA CDK4 (5′-[…]-3′ (SEQ ID NO: 4)) or CDK6 (5′-[…]-3′ (SEQ ID NO. 5)) (IDT-Integrated DNA Technologies), and then ribonucleoprotein (RNP) complex of CDK4 or CDK6 was prepared with respective gRNA complex and Alt-R S.p. Cas9 Nuclease V3 (IDT-Integrated DNA Technologies). Next, 5×10^4/10 μL SWJ1573 cells were electroporated with the CDK4 or CDK6 RNP complex and Alt-R Cas9 Electroporation Enhancer using Neon Transfection System (Thermo Fisher). Cells were then plated in a 96-well plate to select single clones for validation of CDK4 or CDK6 knockout by western blot analysis.
MCF7 cells were obtained from American Type Culture Collection (ATCC, HTB-22). SW1573-CDK6 KO and SW1573-CDK4 KO cells were generated by the CRISPR-Cas9 technology. All cells were plated in 96-well plates (VWR #10062-900, or Corning #3904) in 90 uL culture medium at a density of 20,000 cells/well in the respective growth medium containing 10% FBS and 1% Penicillin Streptomycin, and then incubated at 37° C. overnight. The following day, the test compound was administered to the cells by using 1000× compound stock solution prepared in DMSO at various concentrations. 1000× compound stock solution was first diluted in culturing medium to 10×, then 10 uL compound medium was added to each well in the cell plates. After administration of the compound, the cells were then incubated at 37° C. for 24 hours. Upon completion, the cells were washed with PBS briefly. 150 uL/well of 4% formaldehyde was added and the plates were incubated at room temperature for 20 mins. The cells were washed with PBS briefly, and permeabilized with 150 uL/well of ice cold 100% methanol for 10 mins. The cells were washed with PBS briefly and blocked with 100 uL/well LI-COR blocking buffer for 1 hr at room temperature with gentle shaking. The cells were incubated overnight at 4° C. with 50 uL primary antibody rabbit anti-Phospho-Rb (Ser807/811) (1: 500, Cell Signaling, #8516) and anti-Rb (1:200, Santa Cruz, sc-73598) diluted in Intercept Blocking Buffer (LI-COR, #927-60001) containing 0.1% Tween 20. The next day, the cells were washed with 200 uL PBS containing 0.1% Tween 20, 5×5 mins at room temperature with gentle shaking, and incubated with 50 uL secondary antibody, IRDye® 800CW Goat anti-Rabbit IgG (1:1000, LI-COR, #926-32211) and IRDye®680RD Goat anti-Mouse IgG (1:1000, LI-COR, #926-68070), in LI-COR blocking buffer with 0.2% Tween 20 for 1 hr at room temperature with gentle shaking. The cells were washed with 200 uL PBS containing 0.1% Tween 20, 5×5 mins at room temperature with gentle shaking. The cells were washed with PBS for 5 mins. 100 uL fresh PBS was added to each well and the plates were imaged on a LI-COR Odyssey CLX plate reader.

IC50 [nM] | Compound
40 to 150 | CNCc1c(C)c(=O)c2ccc(-c3nc(N[C@@H]4C[C@H]5CO[C@H](O5)[C@H]4O)ncc3F)cc2n1C(C)C [Compound 194, 7-(5-fluoro-2-(((1S,3R,4S,5R)-4-hydroxy-6,8-dioxabicyclo[3.2.1]octan-3-yl)amino)pyrimidin-4-yl)-1-isopropyl-3-methyl-2-((methylamino)methyl)quinolin-4(1H)-one]
40 to 150 | CC(C)n1c([C@@H]2CCOC2)nc2c(F)cc(-c3nc(N[C@@H]4C[C@H]5CO[C@H](O5)[C@H]4O)ncc3Cl)cc21 [Compound 268, (1S,3R,4S,5R)-3-((5-chloro-4-(4-fluoro-1-isopropyl-2-((S)-tetrahydrofuran-3-yl)-1H-benzo[d]imidazol-6-yl)pyrimidin-2-yl)amino)-6,8-dioxabicyclo[3.2.1]octan-4-ol]
≤ 40 | Cc1c(-c2nc(N[C@@H]3C[C@H]4CO[C@H](O4)[C@H]3O)ncc2C(F)F)sc2c(C(C)C)cn(C)c(=O)c12 [Compound 227, 2-(5-(difluoromethyl)-2-(((1S,3R,4S,5R)-4-hydroxy-6,8-dioxabicyclo[3.2.1]octan-3-yl)amino)pyrimidin-4-yl)-7-isopropyl-3,5-dimethylthieno[3,2-c]pyridin-4(5H)-one]
40 to 150 | CC(C)n1c(CN2[C@@H](C)COC[C@@H]2C)c(F)c(=O)c2ccc(-c3nc(N[C@@H]4C[C@H]5CO[C@H](O5)[C@H]4O)ncc3Cl)cc21 [Compound 201, 7-(5-chloro-2-(((1S,3R,4S,5R)-4-hydroxy-6,8-dioxabicyclo[3.2.1]octan-3-yl)amino)pyrimidin-4-yl)-2-(((3S,5S)-3,5-dimethylmorpholino)methyl)-3-fluoro-1-isopropylquinolin-4(1H)-one]
150 to 1000 | CC(C)n1c([C@H]2CCOC2)nc2c(F)cc(-c3nc(N[C@@H]4C[C@H]5CO[C@H](O5)[C@H]4O)ncc3F)cc21 [Compound 269, (1S,3R,4S,5R)-3-((5-fluoro-4-(4-fluoro-1-isopropyl-2-((R)-tetrahydrofuran-3-yl)-1H-benzo[d]imidazol-6-yl)pyrimidin-2-yl)amino)-6,8-dioxabicyclo[3.2.1]octan-4-ol]
40 to 150 | CC(C)n1c(N2C(=O)OC[C@@H]2C)nc2c(F)cc(-c3nc(N[C@@H]4C[C@H]5CO[C@H](O5)[C@H]4O)ncc3Cl)cc21 [Compound 298, (S)-3-(6-(5-chloro-2-(((1S,3R,4S,5R)-4-hydroxy-6,8-dioxabicyclo[3.2.1]octan-3-yl)amino)pyrimidin-4-yl)-4-fluoro-1-isopropyl-1H-benzo[d]imidazol-2-yl)-4-methyloxazolidin-2-one]
40 to 150 | CC(C)n1c(CN2[C@@H](C)COC[C@@H]2C)cc(=O)c2ccc(-c3nc(N[C@@H]4C[C@H]5CO[C@H](O5)[C@H]4O)ncc3Cl)cc21 [Compound 205, 7-(5-chloro-2-(((1S,3R,4S,5R)-4-hydroxy-6,8-dioxabicyclo[3.2.1]octan-3-yl)amino)pyrimidin-4-yl)-2-(((3S,5S)-3,5-dimethylmorpholino)methyl)-1-isopropylquinolin-4(1H)-one]
≤ 40 | Cc1nc2c(F)cc(-c3nc(N[C@@H]4C[C@H]5CO[C@H](O5)[C@H]4O)ncc3Cl)cc2n1C(C)C [Compound 25, (1S,3R,4S,5R)-3-((5-chloro-4-(4-fluoro-1-isopropyl-2-methyl-1H-benzo[d]imidazol-6-yl)pyrimidin-2-yl)amino)-6,8-dioxabicyclo[3.2.1]octan-4-ol]
≤ 40 | Cc1c(CN2[C@@H](C)COC[C@@H]2C)n(C(C)C)c2cc(-c3nc(N[C@@H]4C[C@H]5CO[C@H](O5)[C@H]4O)ncc3Cl)ccc2c1=O [Compound 206, 7-(5-chloro-2-(((1S,3R,4S,5R)-4-hydroxy-6,8-dioxabicyclo[3.2.1]octan-3-yl)amino)pyrimidin-4-yl)-2-(((3S,5S)-3,5-dimethylmorpholino)methyl)-1-isopropyl-3-methylquinolin-4(1H)-one]
40 to 150 | CC(C)n1c([C@@H]2CCOC2)nc2c(F)cc(-c3nc(N[C@@H]4C[C@H]5CO[C@H](O5)[C@H]4O)ncc3F)cc21 [Compound 270, (1S,3R,4S,5R)-3-((5-fluoro-4-(4-fluoro-1-isopropyl-2-((S)-tetrahydrofuran-3-yl)-1H-benzo[d]imidazol-6-yl)pyrimidin-2-yl)amino)-6,8-dioxabicyclo[3.2.1]octan-4-ol]
≤ 40 | CC(C)n1c([C@@H]2CC2(F)F)nc2c(F)cc(-c3nc(N[C@@H]4C[C@H]5CO[C@H](O5)[C@H]4O)ncc3Cl)cc21 [Compound 216, (1S,3R,4S,5R)-3-((5-chloro-4-(2-((S)-2,2-difluorocyclopropyl)-4-fluoro-1-isopropyl-1H-benzo[d]imidazol-6-yl)pyrimidin-2-yl)amino)-6,8-dioxabicyclo[3.2.1]octan-4-ol]
40 to 150 | CC(C)n1c(CN2CC[C@@H](F)C2)c(F)c(=O)c2ccc(-c3nc(N[C@@H]4C[C@H]5CO[C@H](O5)[C@H]4O)ncc3F)cc21 [Compound 202, 3-fluoro-7-(5-fluoro-2-(((1S,3R,4S,5R)-4-hydroxy-6,8-dioxabicyclo[3.2.1]octan-3-yl)amino)pyrimidin-4-yl)-2-(((R)-3-fluoropyrrolidin-1-yl)methyl)-1-isopropylquinolin-4(1H)-one]
≤ 40 | Cc1c(C(C)(C)O)cnc2c(F)cc(-c3nc(N[C@@H]4C[C@H]5CO[C@H](O5)[C@H]4O)ncc3Cl)cc12 [Compound 257, (1S,3R,4S,5R)-3-((5-chloro-4-(8-fluoro-3-(2-hydroxypropan-2-yl)-4-methylquinolin-6-yl)pyrimidin-2-yl)amino)-6,8-dioxabicyclo[3.2.1]octan-4-ol]
≤ 40 | Cc1c(-c2nc(N[C@@H]3C[C@H]4CO[C@H](O4)[C@H]3O)ncc2Cl)sc2c(C(C)C)cnnc12 [Compound 259, (1S,3R,4S,5R)-3-((5-chloro-4-(4-isopropyl-7-methylthieno[3,2-c]pyridazin-6-yl)pyrimidin-2-yl)amino)-6,8-dioxabicyclo[3.2.1]octan-4-ol]
≤ 40 | Cc1c(-c2nc(N[C@@H]3C[C@H]4CO[C@H](O4)[C@H]3O)ncc2F)sc2c(Cl)c(C(C)(C)O)cnc12 [Compound 276, (1S,3R,4S,5R)-3-((4-(7-chloro-6-(2-hydroxypropan-2-yl)-3-methylthieno[3,2-b]pyridin-2-yl)-5-fluoropyrimidin-2-yl)amino)-6,8-dioxabicyclo[3.2.1]octan-4-ol]
≤ 40 | Cc1c(-c2nc(N[C@@H]3C[C@H]4CO[C@H](O4)[C@H]3O)ncc2Cl)sc2c(C)c(C(C)(C)O)cnc12 [Compound 277, (1S,3R,4S,5R)-3-((5-chloro-4-(6-(2-hydroxypropan-2-yl)-3,7-dimethylthieno[3,2-b]pyridin-2-yl)pyrimidin-2-yl)amino)-6,8-dioxabicyclo[3.2.1]octan-4-ol]
≤ 40 | CC(C)(O)c1cnc2c(F)cc(-c3nc(N[C@@H]4C[C@H]5CO[C@H](O5)[C@H]4O)ncc3Cl)cc2c1Cl [Compound 252, (1S,3R,4S,5R)-3-((5-chloro-4-(4-chloro-8-fluoro-3-(2-hydroxypropan-2-yl)quinolin-6-yl)pyrimidin-2-yl)amino)-6,8-dioxabicyclo[3.2.1]octan-4-ol]
≤ 40 | Cc1c(-c2nc(N[C@@H]3C[C@H]4CO[C@H](O4)[C@H]3O)ncc2Cl)sc2c(C(C)C)cn(C)c(=O)c12 [Compound 223, 2-(5-chloro-2-(((1S,3R,4S,5R)-4-hydroxy-6,8-dioxabicyclo[3.2.1]octan-3-yl)amino)pyrimidin-4-yl)-7-isopropyl-3,5-dimethylthieno[3,2-c]pyridin-4(5H)-one]
150 to 1000 | Cc1c(C)n(C(C)C)c2cc(-c3nc(N[C@@H]4C[C@H]5CO[C@H](O5)[C@H]4O)ncc3Cl)ccc2c1=O [Compound 191, 7-(5-chloro-2-(((1S,3R,4S,5R)-4-hydroxy-6,8-dioxabicyclo[3.2.1]octan-3-yl)amino)pyrimidin-4-yl)-1-isopropyl-2,3-dimethylquinolin-4(1H)-one]

— patent US20250084095A1, “Aminopyrimidine Derivatives as Cyclin-Dependent Kinase Inhibitors” (Accutar Biotechnology Inc., priority 2023, published 2025)
